Experimental data as given in patent publication US7262223B2, “Amidine derivatives for treating amyloidosis” (Neurochem (International) Limited, priority 2004, dated 2007).

Target: T1, solubilized Aβ40 (Homo sapiens, UniProt P05067)
T1 construct: 20 μM of solubilized Aβ40
Experiment: Mass spectroscopy (MS) assay of binding to soluble Aβ40
Parameters: key: “+” = active; “−” = inactive
Conditions: 200 μM test compound, 20 μM solubilized Aβ40, 20% ethanol, pH 7.4, electrospray ionization MS
Protocol: Test compounds were purchased from commercial sources or synthesized and screened by mass spectroscopy (“MS”) assay, which gives data on the ability of compounds to bind to an amyloid protein. Samples were prepared as aqueous solutions containing 20% ethanol, 200 μM of a test compound and 20 μM of solubilized Aβ40. The pH value of each sample was adjusted to 7.4 (±0.2) by addition of 0.1% aqueous sodium hydroxide. The solutions were then analyzed by electrospray ionization mass spectroscopy using a Waters ZQ 4000 mass spectrometer. Samples were introduced by direct infusion at a flow-rate of 25 μL/min within 2 hr. after sample preparation. The source temperature was kept at 70° C. and the cone voltage was 20 V for all the analysis. Data were processed using Masslynx 3.5 software. The MS assay gives data on the ability of compounds to bind to Aβ, whereas the ThT, EM and CD assays give data on inhibition of fibrillogenesis.

T1 sequence (P05067 672-711 limits assumed): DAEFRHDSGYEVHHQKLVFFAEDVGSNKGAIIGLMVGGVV

Row | MS Assay | Structure (SMILES)
1 | + | N=C(NCCCCCCCN)c1ccc(Br)cc1 [Compound 145]
2 | + | N=C(NCCCCCCCNC(=O)c1ccc(Br)cc1)c1ccc(Br)cc1 [Compound 146]
3 | − | N/C(=N\O)c1ccc(OCCCCCCCCCNO)cc1 [Compound 147]
4 | + | CCOC(=O)c1ccc(C(=O)NCCCCCCCNC(=O)c2ccc(C(=N)N)cc2)cc1 [Compound 148]
5 | + | CCOC(=O)c1ccc(C(=O)NCCCCCCCCCNC(=O)c2ccc(C(=N)N)cc2)cc1 [Compound 149]
6 | + | N=C(NCCCCCNC(=N)c1ccc(Br)cc1)c1ccc(Br)cc1 [Compound 150]
7 | + | N=C(NCCCCCCCCCNC(=N)c1ccc(Br)cc1)c1ccc(Br)cc1 [Compound 151]
8 | − | COc1ccc(C(=N)NCCCCCCCCCNC(=N)c2ccc(OC)cc2)cc1 [Compound 152]
9 | + | COc1ccc(C(=N)NCCN2CCN=C2c2ccc(OC)cc2)cc1 [Compound 153]
10 | + | COc1ccc(C(=N)NCCCCCNC(=N)c2ccc(OC)cc2)cc1 [Compound 154]
11 | − | N=C(N)c1ccc(C(=O)NCCN(CCNC(=O)c2ccc(C(=N)N)cc2)C(=O)c2ccc(C(=N)N)cc2)cc1 [Compound 155]
12 | − | Nc1ccc(OCCCCCOc2ccc(NC3=NCCN3)cc2)cc1 [Compound 156]
13 | − | N=C(N)c1ccc(S(=O)(=O)NCCCCCCCCCNS(=O)(=O)c2ccc(C(=N)N)cc2)cc1 [Compound 158]
